How the values were obtained:
[1] = tested on: acute lung injury induced by LPS; experiment: LPS-induced acute lung injury: myeloperoxidase (MPO) activity in lung tissue; conditions: 100 mg/kg intraperitoneal, 60 minutes before LPS; 6 hours after LPS
[2] = tested on: foot edema induced by human neutrophil elastase; experiment: Foot edema induced by human neutrophil elastase in mice
[3] = tested on: acute lung injury induced by LPS; experiment: LPS-induced acute lung injury: tissue pathological examination of lung; assay type: in vivo, mouse (C57BL/6); conditions: 100 mg/kg intraperitoneal; 6 hours after LPS; H&E, 400×
Procedure: The left lung tissue of the mice from each group was rinsed with PBS and was fixed using a fixating solution (10% paraformaldehyde prepared in PBS) for 24 hours, followed by subjecting to ethanol dehydration treatment. The dehydrated tissue was then embedded in paraffin and sliced, thereby obtaining a sample with 4 to 6 μm thickness. The paraffin was then removed from the sample. The tissue was then stained with hematoxylin and eosin, was observed using an optical microscope (IX81, Olympus) at 400× magnification, and an image thereof was captured using a digital camera (DP72, Olympus).

[4] = target: human neutrophil elastase (Homo sapiens (Human), UniProt P08246); experiment: Inhibition of human neutrophil elastase activity (MeO-Suc-Ala-Ala-Pro-Val-p-nitroanilide, OD405); assay type: biochemical; conditions: mean ± SEM (n = 3), 30° C., 30 minutes
human neutrophil elastase, sequence (P08246 30-267): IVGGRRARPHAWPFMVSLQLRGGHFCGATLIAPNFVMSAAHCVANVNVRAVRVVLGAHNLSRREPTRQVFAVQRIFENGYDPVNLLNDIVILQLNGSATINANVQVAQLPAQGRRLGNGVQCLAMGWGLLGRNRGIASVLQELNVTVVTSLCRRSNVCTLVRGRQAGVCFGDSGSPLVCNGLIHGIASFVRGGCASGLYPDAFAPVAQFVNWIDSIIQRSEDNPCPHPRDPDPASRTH

IC50 [4] | SMILES | MPO activity in lung tissue vs pathological control group [1] | edema degree (change in foot thickness) vs pathological control group ([2]; 50 mg/kg and 100 mg/kg intraperitoneal, 60 minutes before elastase, 10th-240th minute) | reduction of edema degree compared with Sivelestat ([2]; 100 mg/kg intraperitoneal, Sivelestat 100 mg/kg) | lung histology (alveolar edema, interstitial lung edema, leukocyte infiltration) [3]
– | C/C(=N\O)c1ccccc1NS(=O)(=O)c1ccc(OC(=O)C(C)(C)C)cc1 [Compound 1, (E)-4-(N-(2-(1(hydroxyimino)ethyl)phenyl)sulfamoyl)phenyl pivalate] | significantly reduced MPO activity | relatively lower edema degree | superior effect in reduction of edema degree to Sivelestat | minor alveolar edema, interstitial lung edema, and leukocyte infiltration
159 ± 15.5 µM | C/C(=N\OCCCO)c1ccccc1NS(=O)(=O)c1ccc(OC(=O)C(C)(C)C)cc1 [Compound 7, (E)-4-(N-(2-(1-(3-hydroxypropoxyimino)ethyl)phenyl)sulfamoyl)phenyl pivalate] | – | – | – | –

Source: patent US9073833B1, “Oxime-based compound, pharmaceutical composition containing the same and method for preparing the same” (Chang Gung University, priority 2014, dated 2015)
